Assay results reported in patent US10959966B2, “Compositions and methods for modulating HEXM1 expression” (CASE WESTERN RESERVE UNIVERSITY, priority 2014, dated 2021).

Key:
Type in all cases: cell-based
[1] = test system: HEXIM1 targets in MCF7 cells; assay: Western blot of HEXIM1 targets in MCF7 cells; settings: 5 mM HMBA or 50 uM 4a1, 18 h, relative to GAPDH
Experimental: FIG. 10 illustrates a Western blot of MCF7 cells treated with vehicle, 5 mM HMBA, or 50 uM 4a1 for 18 h, and processes for analyses of HEXIM1 targets relative to GAPDH.
(§1) Cell lysates were analyzed by western blot as previously described. Anti-HEXIM1 was generated in the Montano laboratory. Primary antibodies against p21 (C-19; cat# sc-397), cyclin D1 (HD11; cat# sc-246) and myc (9E10; cat# sc-40) were obtained from Santa Cruz Biotechnology. Anti-GAPDH was obtained from Millipore. Anti-HIF-1α was obtained from Oxy-cell, Bioresearch).
To assess the clinical potential of HMBA and 4a1 we need to determine to what extent the targets of HMBA and 4a1 overlap with that of HEXIM1. We focused on direct targets of HEXIM1 that we have identified.

[2] = test system: HEXIM1 expression in breast cancer MDA-MB-231 cells; assay: HEXIM1 expression in MDA-MB-231 cells
Experimental: FIGS. 5(A-C) illustrate (A) the structure of HMBA analog, 4a1, (B) a graph showing HEXIM1 protein expression of breast cancer MCF7 cells treated with vehicle, HMBA, or 4a1 for 18 h, and (C) Western blot analyses of HEXIM1 targets relative to the loading control (GAPDH) of the treated cells.
MCF7, MDA-MB-231, and LNCaP cells were obtained from the American Tissue Culture Collection, and were maintained as previously described. Construction of expression vectors for control miRNA or HEXIM1 miRNAs were described previously. MCF7 or LNCaP cells were transfected with expression vectors containing either the HEXIM1 miRNA insert or a control miRNA insert as previously described. Following blasticidin selection, cells expressing the highest level of GFP were flow-sorted and expanded. MDA-MB-231 cells were transfected with control or expression vector for Flag-tagged HEXIM1 as previously described. The tamoxifen resistant cells line (TOTR) was generated by serial passage of parental MCF7 cells in growth media supplemented with 1 uM trans-hydroxytamoxifen.
as §1, with “Anti-HIF-1α was obtained from Oxy-cell, Bioresearch).” left out

[3] = test system: p21 expression in prostate cancer LNCaP cells; assay: p21 expression by western blot, LNCaP cells; settings: 5 mM HMBA or 50 μM 4a1, 18 hours
Experimental: (§2) FIGS. 7(A-B) illustrate Western blots showing (A) MCF7 (control siRNA or HEXIM1 siRNA) and (B) LNCaP (control shRNA or HEXIM1 shRNA) cells treated with vehicle (DMSO), 5 mM HMBA, or 50 μM 4a1 for 18 hours.
as §1
(§3) HMBA was investigated in a Phase II clinical trial due to its potent anti-cancer and cell differentiation activities. Moreover, the roles of HMBA, and potentially 4a1, as differentiating factors are advantageous for their therapeutic use when compared to cytotoxic agents. […] We also examined the ability of 4a1 to induce differentiation and the relative role of HEXIM1.

[4] = test system: recruitment of CDK9 to HEXIM1 gene in MCF7 cells; assay: ChIP assay, CDK9 recruitment to HEXIM1 gene, MCF7 cells; settings: 5 mM HMBA or 50 μM 4a1, 90 minutes
Experimental: FIGS. 6(A-B) illustrate graphs showing HEXIM1 graphs showing HMBA and 4a1 induced recruitment of CDK9 to HEXIM1 promoter in MCF7 and LNCaP cells treated with 5 mM HMBA or 50 μM 4a1 for 90 minutes.
ChIP assays were carried out as previously described. Anti-CDK9 antibody (D-7; cat# sc-13130) was obtained from Santa Cruz Biotechnology.
The induction of HEXIM1 by HMBA appears to involve the release of free P-TEFb from 7SK snRNP, and recruitment of P-TEFb to HEXIM1 gene. P-TEFb is a heterodimer between the cyclin-dependent kinase 9 (Cdk9) and its regulatory subunit Cyclin T1 (CycT1). We thus determined the regulation of the recruitment of CDK9 to the HEXIM1 coding sequence by HMBA and 4a1.

[5] = test system: triple negative MDA-MB-231 breast cancer cells; assay: Nile red staining of lipid droplets (differentiation marker), MDA-MB-231 cells; settings: 72 hours
Experimental: FIGS. 8(A-B) illustrate images showing (A) MCF7 cells transfected with control or HEXIM1 siRNA or (B) MDA-MB-231 transfected with control or HEXIM1 expression vector treated with vehicle (DMSO), HMBA, or 4a1 for 72 hours. Lower panels show Western blot analyses of HEXIM1 expression in MDA-MB-231 cells transfected with control or expression vector for Flag-tagged HEXIM1.
Cells were stained with Nile red for lipid droplets (marker of cell differentiation). Briefly, the stock solution of Nile red 1 mg/ml in acetone was diluted in PBS (1:1000). The fixed cells (4% paraformaldehyde) were incubated with diluted Nile red for 5 minutes at room temperature, rinsed with PBS and observed for the presence of lipid droplets by confocal microscopy. Images were digitally captured using a Leica microscope (Leica Microsystems Inc, IL, USA).

[6] = test system: p21 expression in breast cancer MCF7 cells; assay: p21 expression by western blot, MCF7 cells; settings: 5 mM HMBA or 50 μM 4a1, 18 hours
Experimental: as §2, §1, §3

Compound: COc1ccc(CC(=O)NCCCCCCNC(C)=O)cc1 [Compound 4a1]
- Expression of proteins directly regulated by HEXIM1 [1]: regulated expression of proteins
- Potency of HEXIM1 induction compared to HMBA [2]: increased potency
- p21 expression [3]: induction of p21 expression
- Recruitment of CDK9 to HEXIM1 gene [4]: induce recruitment of CDK9
- Cell differentiation (lipid droplets, Nile red) [5]: induced differentiation
- p21 expression [6]: induced p21 expression
